Measurements as given in patent US20120276049A1, “Methods and compositions for amelioration of autoimmune disease using fusion proteins of anti-dendritic cell receptor antibody to peptide sequences” (President and Fellows of Harvard College, priority 2009, published 2012).
One block for each substance: values may come before it.

Legend:
[1] = biological target: DEC205 receptor (mouse), on splenic CD11c+ dendritic cells of SJL mice (mouse) (UniProt Q60767); test: cell-based or functional assay
[2] = system: PLP139-151-induced EAE in recipient SJL mice; test: Adoptive transfer of CD4+ T cells from preimmunized SJL mice, then EAE induction in recipients; format: in vivo, mouse; conditions: donors coimmunized with 500 μg copolymer
Experimental: SJL mice were preimmunized on day 10 i.p. with each of 1 μg fusion monoclonal antibodies: DEC205-PLP-specific (closed diamonds; αDEC205/PLP mAb CD4^+ T cells) or control GL117-PLP-specific (closed squares; GL117/PLP mAb CD4^+ T cells), or control treatment with 500 μg of the synthetic amino acid copolymer (poly (F,Y,A,K)n; closed light gray circles; PLP139-151+FYAK CD4^+ T cells) or no treatment (closed triangles). The 5×10^6 CD4+ T cells, enriched splenocytes obtained from preimmunized mice, were adoptively transferred i.v. into the tail veins of non-treated mice, followed by immunization on day 1 with 75 μg of PLP139-151 in CFA and PT i.v. the following day. Controls received PBS injections. Mean disease scores of five mice/group are shown. […]
SJL mice herein were preimmunized at day 10 i.p. with 1 μg of DEC205-PLP specific monoclonal antibodies (closed diamonds; αDEC205/PLP mAb) only or not treated (closed triangles) in a control group. Mice were monitored for clinical signs of EAE for 30 days. […]
SJL/J mice were preimmunized (day 10, 15, or 20) with 1 μg i.p. of fusion monoclonal antibodies (DEC205-PLP specific monoclonal antibodies, DEC205-HA specific monoclonal antibodies, DEC205 specific monoclonal antibodies alone, or GL117-PLP specific monoclonal antibodies). […] The mice were scored daily for 30 days. […]

[3] = system: patients with secondary progressive MS; conditions: weekly s.c. 3 or 10 mg; 50 patients; cited from earlier work
[4] = system: Experimental Autoimmune Encephalomyelitis (EAE, the mouse model of MS); conditions: compared with Copaxone; cited from earlier work
[5] = in vivo; cited from earlier work
[6] = system: relapsing-remitting forms of MS; conditions: cited from earlier work

Sequence of UniProt Q60767 (Q60767 28-1723): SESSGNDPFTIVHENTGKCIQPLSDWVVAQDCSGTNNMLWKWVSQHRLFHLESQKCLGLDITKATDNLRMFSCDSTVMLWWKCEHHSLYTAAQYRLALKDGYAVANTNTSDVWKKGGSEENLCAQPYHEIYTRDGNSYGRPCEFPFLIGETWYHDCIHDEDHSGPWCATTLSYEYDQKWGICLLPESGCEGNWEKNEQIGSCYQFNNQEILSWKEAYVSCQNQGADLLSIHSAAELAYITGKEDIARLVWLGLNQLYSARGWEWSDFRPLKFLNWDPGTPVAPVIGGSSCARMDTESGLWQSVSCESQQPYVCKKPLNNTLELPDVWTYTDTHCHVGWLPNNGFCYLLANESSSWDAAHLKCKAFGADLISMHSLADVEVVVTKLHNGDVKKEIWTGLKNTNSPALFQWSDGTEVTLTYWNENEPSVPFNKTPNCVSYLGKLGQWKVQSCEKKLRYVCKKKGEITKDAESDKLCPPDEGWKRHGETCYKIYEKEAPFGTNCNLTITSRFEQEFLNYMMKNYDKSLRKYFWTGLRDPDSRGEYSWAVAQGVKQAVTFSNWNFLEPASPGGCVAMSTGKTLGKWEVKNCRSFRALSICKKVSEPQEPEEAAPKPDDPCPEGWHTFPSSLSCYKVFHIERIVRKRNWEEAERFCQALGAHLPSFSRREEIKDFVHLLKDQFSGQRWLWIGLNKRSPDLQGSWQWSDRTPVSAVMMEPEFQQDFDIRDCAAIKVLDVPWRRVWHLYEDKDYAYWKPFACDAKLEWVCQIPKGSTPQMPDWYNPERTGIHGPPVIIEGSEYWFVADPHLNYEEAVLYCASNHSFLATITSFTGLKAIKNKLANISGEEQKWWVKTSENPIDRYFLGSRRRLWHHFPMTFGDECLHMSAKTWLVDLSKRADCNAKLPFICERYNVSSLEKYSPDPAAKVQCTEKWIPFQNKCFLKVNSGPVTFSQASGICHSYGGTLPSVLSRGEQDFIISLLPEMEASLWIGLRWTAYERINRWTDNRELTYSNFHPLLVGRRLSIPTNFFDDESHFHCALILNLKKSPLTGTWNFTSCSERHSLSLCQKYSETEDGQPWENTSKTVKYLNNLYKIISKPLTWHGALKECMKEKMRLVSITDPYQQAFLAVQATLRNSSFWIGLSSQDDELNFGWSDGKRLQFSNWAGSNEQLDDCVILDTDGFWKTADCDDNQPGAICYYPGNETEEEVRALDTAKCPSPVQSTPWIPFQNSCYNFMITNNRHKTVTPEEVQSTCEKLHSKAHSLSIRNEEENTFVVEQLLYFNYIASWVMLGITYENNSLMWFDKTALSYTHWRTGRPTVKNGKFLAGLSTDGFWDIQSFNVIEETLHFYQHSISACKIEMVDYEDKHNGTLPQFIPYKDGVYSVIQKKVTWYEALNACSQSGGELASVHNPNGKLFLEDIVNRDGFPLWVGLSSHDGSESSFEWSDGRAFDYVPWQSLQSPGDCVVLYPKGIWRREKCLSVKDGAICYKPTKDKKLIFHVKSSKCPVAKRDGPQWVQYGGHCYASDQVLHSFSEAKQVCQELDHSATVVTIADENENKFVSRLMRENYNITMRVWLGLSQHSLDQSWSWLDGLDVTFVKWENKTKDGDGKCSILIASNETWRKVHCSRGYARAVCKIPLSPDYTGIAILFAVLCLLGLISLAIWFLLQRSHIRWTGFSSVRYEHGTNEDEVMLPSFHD

IFN-γ secretion in day 3 coculture supernatants (cytokine bead array) [1]: 10 fold
Substance: anti-DEC205-PLP139-151 fusion monoclonal antibody (cloned NLDC-145 with PLP139-151 fused to the C terminus of the Ig heavy chain)

Substance: poly (F,Y,A,K)n [FYAK]
EAE induction in recipients of CD4+ T cells [2]: efficiently prevented EAE induction
number of Gadolinium-enhancing lesions [3]: severely reduce
effectiveness in treatment of EAE [4]: far more effective than Copaxone

Substance: poly(Y, E, A, K)n [Copaxone ®]
side effects [5]: severe injection
reduction of relapse rate [6]: 30%
